Earlier results, collected in patent EP0972007B1, “DETERGENT COMPOSITIONS” (UNILEVER PLC, priority 1997, dated 1998).

Conditions: for Water Solubility (g/100g): grams of solid to form a saturated solution in 100 grams of water at 20°C

## O=BO[O-].[Na+] [Sodium perborate anhydrous]
  Water Solubility (g/100g): 3.7 g/100g

## O=P(O)(O)OP(=O)(O)OP(=O)(O)O [Sodium tripolyphosphate anhydrous]
  Water Solubility (g/100g): 15 g/100g

## NC(N)=O [Urea]
At 20°C
  solubility in water: exceeding 100 gms per 100ml water
  Water Solubility (g/100g): >100 g/100g
